Usually IC50 stands for the concentration at which inhibition is half-maximal.

Series [1] in a line: Antiangiogenic activity in human EPC cells assessed as suppression of EPC tube formation incubated for 24 hrs by microscopic analysis. The series is classed as functional, cell-based.
Series [2] can be described thus: Cytotoxicity against human EPC cells assessed as LDH release. Format: toxicity, cell-based.

Values after ≈ are worked out from the molar mass of the structure shown.

For `CNC(=O)c1cc(Oc2ccc(NC(=O)Nc3ccc(Cl)c(C(F)(F)F)c3)cc2)ccn1` [SORAFENIB], in series [1], the concentration for half-maximal inhibition (IC50) was 3.7 µg/mL (≈ 7.96 µM).

As for `C[N@+]1([O-])CO[C@H](c2ccccc2)C[C@@H]1CCCCCC(=O)c1ccccc1`, the IC50 in series [1] was determined as 32 µg/mL (≈ 87.1 µM). Also, the Activity result in series [2] is reported as “Non-Toxic”.

Regarding `C/C=C/C#C/C=C\c1c(O)cccc1CO`, the IC50 in series [1] came out at 21.1 µg/mL (≈ 98.5 µM). Further, in series [2], the Activity result is recorded as “Non-Toxic”.

For the compound `O=C(c1ccccc1)[C@H]1CN2O[C@H]1CCC[C@@H]2C[C@H](O)c1ccccc1`, in series [1], the IC50 amounted to 44 µg/mL (≈ 125 µM). In series [2], the Activity entry was “Non-Toxic”.

As for `C/C=C/C#C/C=C/[C@@]1(O)[C@H](CO)CC=C[C@H]1O`, in series [1], the IC50 is 27.6 µg/mL (≈ 118 µM). Also, the Activity entry in series [2] is “Non-Toxic”.

For the compound `O=C(c1ccccc1)[C@H]1CN2O[C@@H]1CCC[C@H]2C[C@H](O)c1ccccc1`, the IC50 in series [1] is 33.4 µg/mL (≈ 95 µM). Besides, the Activity result in series [2] is “Non-Toxic”.

Regarding `O=C(c1ccccc1)[C@@H]1CN2O[C@@H]1CCC[C@H]2C[C@H](O)c1ccccc1`, in series [1], the IC50 was 30.6 µg/mL (≈ 87.1 µM).

As for `C/C=C/C#C/C=C/c1c(O)cccc1CO`, the IC50 in series [1] came out at 24.5 µg/mL (≈ 114 µM). In addition, the Activity result in series [2] is reported as “Non-Toxic”.

The values above are taken from ChEMBL document CHEMBL5257078, “Alkaloids and Polyacetylenes from Hippobroma longiflora with Antiangiogenesis Properties” (J Nat Prod, 2023).
